Measured values taken from PubChem BioAssay (NCI).
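Grown in 96-well plates, cells were treated for 48 hours with each compound at five concentrations. Insufficient inhibition: endpoint recorded as highest concentration tested. TGI denotes the concentration required for complete inhibition of growth.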 Where a SMILES comes first, the peptide text is derived from it. Bridges are numbered along the chain shown (N, C = ends). [ ]: non-standard residue; d: D form. The star is where a group is joined. PhAc = O=C(Cc1ccccc1)*

Legend:
Assay in all cases: NCI tumour cell line growth inhibition, 48 h
PC-3 prostate = tested on: PC-3 prostate
OVCAR-3 ovarian = tested on: OVCAR-3 ovarian
UO-31 renal = tested on: UO-31 renal
786-0 renal = tested on: 786-0 renal
TK-10 renal = tested on: TK-10 renal
A549 NSCLC = tested on: A549 NSCLC
HS 578T breast = tested on: HS 578T breast
MDA-MB-435 = tested on: MDA-MB-435
SW-620 colon = tested on: SW-620 colon
NCI/ADR-RES ovarian = tested on: NCI/ADR-RES ovarian
SNB-75 CNS = tested on: SNB-75 CNS
HT29 colon = tested on: HT29 colon
MALME-3M melanoma = tested on: MALME-3M melanoma
OVCAR-4 ovarian = tested on: OVCAR-4 ovarian

`COc1ccc(/C=N/n2c(=O)[nH]c3ccccc3c2=O)cc1` was tested, and the TGI (PC-3 prostate) was > 100 µM, the TGI (OVCAR-3 ovarian) was > 100 µM and the TGI (UO-31 renal) was > 100 µM. For the same compound, the TGI (786-0 renal) was > 100 µM, the TGI (TK-10 renal) was > 100 µM and the TGI (A549 NSCLC) was > 100 µM. For the same compound, the TGI (HS 578T breast) was > 100 µM, the TGI (MDA-MB-435) was > 100 µM and the TGI (SW-620 colon) was > 100 µM. The TGI (NCI/ADR-RES ovarian) was > 100 µM, the TGI (SNB-75 CNS) was > 100 µM and the TGI (HT29 colon) was > 100 µM.
For `N=c1oc2c(Br)cc(Br)cc2cc1C(=O)Nc1ccccn1`, the TGI (MALME-3M melanoma) was > 100 µM, the TGI (PC-3 prostate) was > 100 µM and the TGI (OVCAR-3 ovarian) was > 100 µM. For the same compound, the TGI (OVCAR-4 ovarian) was > 100 µM, the TGI (786-0 renal) was > 100 µM and the TGI (A549 NSCLC) was > 100 µM. For the same compound, the TGI (HS 578T breast) was > 100 µM, the TGI (MDA-MB-435) was > 100 µM and the TGI (SW-620 colon) was > 100 µM. The TGI (NCI/ADR-RES ovarian) was > 100 µM, the TGI (SNB-75 CNS) was > 100 µM and the TGI (HT29 colon) was > 100 µM.
Compound `Cc1cc(N)ccc1N=Nc1ccc(S(=O)(=O)CCOS(=O)(=O)O)cc1` has a TGI (MALME-3M melanoma) of 20.5 µM, a TGI (PC-3 prostate) of 12.7 µM and a TGI (OVCAR-3 ovarian) of 9.55 µM. It also gave a TGI (UO-31 renal) of 8.63 µM, a TGI (OVCAR-4 ovarian) of 29 µM and a TGI (786-0 renal) of 6.55 µM. For the same compound, the TGI (TK-10 renal) was 27.5 µM, the TGI (A549 NSCLC) was 21.5 µM and the TGI (HS 578T breast) was 35.5 µM. The TGI (MDA-MB-435) was 0.502 µM, the TGI (SW-620 colon) was 16.1 µM and the TGI (NCI/ADR-RES ovarian) was > 100 µM. The TGI (SNB-75 CNS) was 19.8 µM and the TGI (HT29 colon) was 6.53 µM.
In the case of `CCOC(=O)N1CC2(C)C=CC1C(C(=O)OC)C2` (stereo not given), the TGI (MALME-3M melanoma) is reported as > 100 µM, the TGI (PC-3 prostate) is reported as > 100 µM and the TGI (OVCAR-3 ovarian) is reported as > 100 µM. For the same compound, the TGI (UO-31 renal) was > 100 µM, the TGI (OVCAR-4 ovarian) was > 100 µM and the TGI (786-0 renal) was > 100 µM. For the same compound, the TGI (TK-10 renal) was > 100 µM, the TGI (A549 NSCLC) was > 100 µM and the TGI (HS 578T breast) was > 100 µM. The TGI (MDA-MB-435) was > 100 µM, the TGI (SW-620 colon) was > 100 µM and the TGI (NCI/ADR-RES ovarian) was > 100 µM. For the same compound, the TGI (SNB-75 CNS) was > 100 µM and the TGI (HT29 colon) was > 100 µM.
For `CCSC1=N/C(=C\c2ccco2)C(NN)=N1`, the TGI (MALME-3M melanoma) was > 50 µM, the TGI (PC-3 prostate) was > 50 µM and the TGI (OVCAR-3 ovarian) was > 50 µM. For the same compound, the TGI (UO-31 renal) was > 50 µM, the TGI (786-0 renal) was > 50 µM and the TGI (TK-10 renal) was > 50 µM. For the same compound, the TGI (A549 NSCLC) was > 50 µM, the TGI (HS 578T breast) was > 50 µM and the TGI (MDA-MB-435) was > 50 µM. The TGI (SW-620 colon) was > 50 µM, the TGI (NCI/ADR-RES ovarian) was > 50 µM and the TGI (SNB-75 CNS) was > 50 µM. For the same compound, the TGI (HT29 colon) was > 50 µM.
`NC1OC(COC(=O)c2ccccc2)C(O)C(OC(=O)c2ccccc2)C1OC(=O)c1ccccc1` (stereo not given) gave a TGI (MALME-3M melanoma) of 36.3 µM, a TGI (PC-3 prostate) of 58.2 µM and a TGI (OVCAR-3 ovarian) of 75.5 µM. For the same compound, the TGI (UO-31 renal) was 94.2 µM, the TGI (OVCAR-4 ovarian) was > 100 µM and the TGI (786-0 renal) was 30.3 µM. For the same compound, the TGI (TK-10 renal) was > 100 µM, the TGI (A549 NSCLC) was 48 µM and the TGI (HS 578T breast) was 42.6 µM. The TGI (MDA-MB-435) was 46.7 µM, the TGI (SW-620 colon) was 53.6 µM and the TGI (NCI/ADR-RES ovarian) was > 100 µM. The TGI (SNB-75 CNS) was 39.8 µM and the TGI (HT29 colon) was 32.5 µM.
In the case of `CC1(C)Oc2ccc3c(=O)c(-c4ccccc4)c(-c4ccccc4)oc3c2C1C(=O)O` (stereo not given), the TGI (MALME-3M melanoma) is reported as > 100 µM, the TGI (PC-3 prostate) is reported as > 100 µM and the TGI (OVCAR-3 ovarian) is reported as > 100 µM. The TGI (OVCAR-4 ovarian) was > 100 µM, the TGI (786-0 renal) was > 100 µM and the TGI (TK-10 renal) was > 100 µM. The TGI (A549 NSCLC) was > 100 µM, the TGI (HS 578T breast) was > 100 µM and the TGI (MDA-MB-435) was > 100 µM. For the same compound, the TGI (NCI/ADR-RES ovarian) was > 100 µM and the TGI (HT29 colon) was > 100 µM.
In the case of `O=C1C=CC(=O)c2c1cc([N+](=O)[O-])c1ccoc21`, the TGI (PC-3 prostate) is reported as 30.7 µM, the TGI (OVCAR-3 ovarian) is reported as 70.2 µM and the TGI (UO-31 renal) is reported as 8.09 µM. It also gave a TGI (OVCAR-4 ovarian) of 38.6 µM, a TGI (786-0 renal) of 3.35 µM and a TGI (TK-10 renal) of 4.37 µM. The TGI (A549 NSCLC) was 40.9 µM, the TGI (HS 578T breast) was > 60.1 µM and the TGI (MDA-MB-435) was 26.2 µM. For the same compound, the TGI (SW-620 colon) was > 100 µM, the TGI (NCI/ADR-RES ovarian) was > 70.8 µM and the TGI (SNB-75 CNS) was > 59.5 µM. It also gave a TGI (HT29 colon) of 76.7 µM.
`Cc1ccc(/C=N/Nc2nc3ccccc3s2)s1` was tested, and the TGI (MALME-3M melanoma) was > 100 µM, the TGI (PC-3 prostate) was > 100 µM and the TGI (OVCAR-3 ovarian) was > 100 µM. For the same compound, the TGI (UO-31 renal) was > 100 µM, the TGI (OVCAR-4 ovarian) was > 100 µM and the TGI (786-0 renal) was > 100 µM. The TGI (TK-10 renal) was > 100 µM, the TGI (A549 NSCLC) was > 100 µM and the TGI (HS 578T breast) was > 100 µM. The TGI (MDA-MB-435) was > 100 µM, the TGI (SW-620 colon) was > 100 µM and the TGI (NCI/ADR-RES ovarian) was > 100 µM. The TGI (SNB-75 CNS) was > 100 µM and the TGI (HT29 colon) was > 100 µM.
For `O=C(Cc1ccccc1)N[C@@H]1COC(=O)[C@@H]2CCCN2C(=O)[C@@H]2CCCN2C1=O` (PhAc-[dS]-Pro-Pro; ester 1-C), the TGI (MALME-3M melanoma) was > 100 µM, the TGI (PC-3 prostate) was > 100 µM and the TGI (OVCAR-3 ovarian) was > 100 µM. For the same compound, the TGI (OVCAR-4 ovarian) was > 100 µM, the TGI (786-0 renal) was > 100 µM and the TGI (TK-10 renal) was > 100 µM. The TGI (A549 NSCLC) was > 100 µM, the TGI (HS 578T breast) was > 100 µM and the TGI (MDA-MB-435) was > 100 µM. For the same compound, the TGI (SW-620 colon) was > 100 µM, the TGI (NCI/ADR-RES ovarian) was > 100 µM and the TGI (HT29 colon) was > 100 µM.
With `CCCCCN1CCN(c2ncccn2)CC1` the TGI (MALME-3M melanoma) was > 100 µM, the TGI (PC-3 prostate) was > 100 µM and the TGI (OVCAR-3 ovarian) was > 100 µM. For the same compound, the TGI (UO-31 renal) was > 100 µM, the TGI (OVCAR-4 ovarian) was > 100 µM and the TGI (786-0 renal) was > 100 µM. The TGI (TK-10 renal) was > 100 µM, the TGI (A549 NSCLC) was > 100 µM and the TGI (HS 578T breast) was > 100 µM. The TGI (MDA-MB-435) was > 100 µM, the TGI (SW-620 colon) was > 100 µM and the TGI (NCI/ADR-RES ovarian) was > 100 µM. The TGI (SNB-75 CNS) was > 100 µM and the TGI (HT29 colon) was > 100 µM.
In the case of `O=c1[nH]c(=O)n(C2OC(CO)C(O)C2O)c2ncc(-c3ccc(-c4ccccc4)cc3)nc12` (stereo not given), the TGI (MALME-3M melanoma) is reported as > 20 µM, the TGI (PC-3 prostate) is reported as > 20 µM and the TGI (UO-31 renal) is reported as > 20 µM. The TGI (OVCAR-4 ovarian) was > 20 µM, the TGI (786-0 renal) was > 20 µM and the TGI (TK-10 renal) was > 20 µM. The TGI (A549 NSCLC) was > 20 µM, the TGI (HS 578T breast) was > 20 µM and the TGI (MDA-MB-435) was > 20 µM. The TGI (SW-620 colon) was > 20 µM, the TGI (NCI/ADR-RES ovarian) was > 20 µM and the TGI (SNB-75 CNS) was > 20 µM. The TGI (HT29 colon) was > 20 µM.
For `Cn1c2c(c3ccccc31)CCN1OCC=C[C@@H](C(=O)O)[C@@H]21`, the TGI (MALME-3M melanoma) was > 100 µM, the TGI (PC-3 prostate) was > 100 µM and the TGI (OVCAR-3 ovarian) was > 100 µM. For the same compound, the TGI (UO-31 renal) was > 100 µM, the TGI (OVCAR-4 ovarian) was > 100 µM and the TGI (786-0 renal) was > 100 µM. For the same compound, the TGI (TK-10 renal) was > 100 µM, the TGI (A549 NSCLC) was > 100 µM and the TGI (HS 578T breast) was > 100 µM. For the same compound, the TGI (MDA-MB-435) was > 100 µM, the TGI (SW-620 colon) was > 100 µM and the TGI (NCI/ADR-RES ovarian) was > 100 µM. For the same compound, the TGI (SNB-75 CNS) was > 100 µM and the TGI (HT29 colon) was > 100 µM.
